Laboratory results from ChEMBL document CHEMBL4304741, “Modification and Biological Evaluation of a Series of 1,5-Diaryl-1,2,4-triazole Compounds as Novel Agents against Pancreatic Cancer Metastasis through Targeting Myoferlin” (J Med Chem, 2019).
pIC50, pKd: −log10 of the molar value. Active and inactive are the calls of the source. No cut-off for these calls is given here.

Legend:
PANC-1 [1] = experiment: Antimigratory activity against MYOF-knockout human PANC1 cells transfected with pcDNA3.1-MYOF measured after 18 hrs in presence of mitomycin C using crystal violet staining by inverted microscopy-based transwell assay; assay type: functional, cell-based
[2] = Cytotoxicity against human HPDE6c7 cells assessed as reduction in cell viability measured after 48 hrs by MTS assay; assay type: cell-based; conditions: HPDE6c7, 48 h
Myoferlin [3] = biological target: T1, Myoferlin (Homo sapiens, UniProt Q9NZM1); experiment: Inhibition of MYOF in human PANC1 cells assessed as reduction in MMP2 secretion measured after 24 hrs by SDS-PAGE analysis; assay type: cell-based
PANC-1 [4] = experiment: Antimetastatic activity against human PANC1 cells harboring luciferase reporter gene xenografted in Balb/c nude mouse assessed as mouse survival at 50 mg/kg/day, ip (reference value: 25%); assay type: functional; conditions: PANC-1, ip
[5] = Toxicity in Balb/c nude mouse xenografted with PANC1 cells assessed as pathological changes in kidney at 25 to 50 mg/kg/day, ip by H and E staining-based microscopic analysis; assay type: organism-based; conditions: in vivo
PANC-1 [6] = experiment: Effect on Snail1 expression in human PANC1 cells up to 400 nM by Western blot analysis; assay type: functional, cell-based
MCF-10A = experiment: Cytotoxicity against human MCF10A cells assessed as reduction in cell viability measured after 48 hrs by MTS assay; assay type: cell-based
Myoferlin [7] = biological target: T1, Myoferlin; experiment: Inhibition of MYOF in human PANC1 cells assessed as reversal of epithelial-mesenchymal transition by measuring up regulation of E-cadherin expression up to 400 nM by Western blot analysis; assay type: cell-based
PANC-1 [8] = experiment: (§1) Antimetastatic activity against human PANC1 cells harboring luciferase reporter gene xenografted in Balb/c nude mouse assessed as reduction in lung metastasis burden by measuring reduction in luminescence at 50 mg/kg/day, ip measured every 10 days by bioluminescence imaging analysis relative to control; assay type: functional
[9] = Toxicity in Balb/c nude mouse xenografted with PANC1 cells assessed as pathological changes in spleen at 25 to 50 mg/kg/day, ip by H and E staining-based microscopic analysis; assay type: organism-based; conditions: in vivo
Cytochrome P450 2B6 = biological target: T2, Cytochrome P450 2B6 (Homo sapiens, UniProt P20813); experiment: Inhibition of CYP2B6 in human liver microsomes using bupropion as substrate preincubated for 5 mins followed by NADPH-generating system addition and measured after 20 mins by LC-MS/MS analysis
T2 sequence (P20813 whole entry): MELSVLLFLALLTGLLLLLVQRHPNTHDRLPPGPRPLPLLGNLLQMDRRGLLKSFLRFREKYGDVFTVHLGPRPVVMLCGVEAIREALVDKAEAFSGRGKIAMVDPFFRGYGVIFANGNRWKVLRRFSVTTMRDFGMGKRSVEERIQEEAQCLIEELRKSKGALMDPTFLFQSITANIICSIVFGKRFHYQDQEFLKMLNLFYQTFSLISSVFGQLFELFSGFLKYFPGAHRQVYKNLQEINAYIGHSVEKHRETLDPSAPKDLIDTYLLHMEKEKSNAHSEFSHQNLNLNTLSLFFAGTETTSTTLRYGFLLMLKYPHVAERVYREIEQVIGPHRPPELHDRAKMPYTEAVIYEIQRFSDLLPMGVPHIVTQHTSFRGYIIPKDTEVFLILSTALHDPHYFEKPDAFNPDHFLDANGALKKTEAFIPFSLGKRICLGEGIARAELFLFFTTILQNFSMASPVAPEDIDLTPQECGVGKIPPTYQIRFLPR

[10] = Toxicity in Balb/c nude mouse xenografted with PANC1 cells assessed as pathological changes in liver at 25 to 50 mg/kg/day, ip by H and E staining-based microscopic analysis; assay type: organism-based; conditions: in vivo
Myoferlin [11] = biological target: T1, Myoferlin; experiment: Binding affinity to recombinant human GST-tagged MYOF C2 domain (3445 to 3912 residues) expressed in Escherichia coli BL21 (DE3) at 145 uM by STD-NMR analysis
PANC-1 [12] = experiment: Effect on myosin 2A expression in human PANC1 cells up to 400 nM by Western blot analysis; assay type: functional, cell-based
PANC-1 [13] = experiment: Effect on VEGFR2 expression in MYOF-knockout human PANC1 cells up to 400 nM by Western blot analysis; assay type: functional, cell-based
Myoferlin [14] = biological target: T1, Myoferlin; experiment: Reversible binding affinity to recombinant human GST-tagged MYOF C2 domain (3445 to 3912 residues) expressed in Escherichia coli BL21 (DE3) by surface plasmon resonance analysis
PANC-1 [15] = experiment: Effect on MMP2 secretion in MYOF-knockout human PANC1 cells up to 400 nM by Western blot analysis; assay type: functional, cell-based
[16] = biological target: Vascular endothelial growth factor receptor 2 (Homo sapiens) (UniProt P35968); experiment: Effect on VEGFR2 phosphorylation in MYOF-knockout human PANC1 cells up to 400 nM by Western blot analysis
PANC-1 [17] = experiment: Cytotoxicity against human PANC1 cells assessed as reduction in cell viability at 0.1 to 1 uM measured after 18 hrs by MTS assay; assay type: cell-based; conditions: panc-1, 18 h
PANC-1 [18] = experiment: Effect on dynein expression in human PANC1 cells up to 400 nM by Western blot analysis; assay type: functional, cell-based
MIA PaCa-2 = experiment: Antimigratory activity against human MIAPaCa2 cells measured after 24 hrs in presence of mitomycin C using crystal violet staining by inverted microscopy-based transwell assay; assay type: functional, cell-based
PANC-1 [19] = experiment: Antimigratory activity against MYOF-knockout human PANC1 cells measured after 18 hrs in presence of mitomycin C using crystal violet staining by inverted microscopy-based transwell assay; assay type: functional, cell-based
Cytochrome P450 3A4 = Cytochrome P450 3A4 (Homo sapiens, UniProt P08684); experiment: Inhibition of CYP3A4 in human liver microsomes using midazolam as substrate preincubated for 5 mins followed by NADPH-generating system addition and measured after 20 mins by LC-MS/MS analysis
[20] = Toxicity in Balb/c nude mouse xenografted with PANC1 cells assessed as pathological changes in lung at 25 to 50 mg/kg/day, ip by H and E staining-based microscopic analysis; assay type: organism-based; conditions: in vivo
PANC-1 [21] = experiment: Effect on Twist1 expression in human PANC1 cells up to 400 nM by Western blot analysis; assay type: functional, cell-based
PANC-1 [22] = experiment: Cytotoxicity against human PANC1 cells assessed as reduction in cell viability measured after 48 hrs by MTS assay; assay type: cell-based; conditions: PANC-1, 48 h
PANC-1 [23] = experiment: Antimetastatic activity against human PANC1 cells harboring luciferase reporter gene xenografted in Balb/c nude mouse assessed as mouse survival at 25 mg/kg/day, ip (reference value: 25%); assay type: functional; conditions: PANC-1, ip
PANC-1 [24] = experiment: Antimetastatic activity against human PANC1 cells harboring luciferase reporter gene xenografted in Balb/c nude mouse administered intraperitoneally once daily measured every 10 days by bioluminescence imaging analysis; assay type: functional, cell-based
PANC-1 [25] = experiment: as §1, with “25” for “50”; assay type: functional
PANC-1 [26] = experiment: Effect on fibronectin expression in MYOF-knockout human PANC1 cells up to 400 nM by Western blot analysis; assay type: functional, cell-based
Capan-2 = experiment: Antimigratory activity against human Capan2 cells measured after 36 hrs in presence of mitomycin C using crystal violet staining by inverted microscopy-based transwell assay; assay type: functional, cell-based
[27] = Toxicity in Balb/c nude mouse xenografted with PANC1 cells assessed as pathological changes in heart at 25 to 50 mg/kg/day, ip by H and E staining-based microscopic analysis; assay type: organism-based; conditions: in vivo

T1 sequence (Q9NZM1 whole entry): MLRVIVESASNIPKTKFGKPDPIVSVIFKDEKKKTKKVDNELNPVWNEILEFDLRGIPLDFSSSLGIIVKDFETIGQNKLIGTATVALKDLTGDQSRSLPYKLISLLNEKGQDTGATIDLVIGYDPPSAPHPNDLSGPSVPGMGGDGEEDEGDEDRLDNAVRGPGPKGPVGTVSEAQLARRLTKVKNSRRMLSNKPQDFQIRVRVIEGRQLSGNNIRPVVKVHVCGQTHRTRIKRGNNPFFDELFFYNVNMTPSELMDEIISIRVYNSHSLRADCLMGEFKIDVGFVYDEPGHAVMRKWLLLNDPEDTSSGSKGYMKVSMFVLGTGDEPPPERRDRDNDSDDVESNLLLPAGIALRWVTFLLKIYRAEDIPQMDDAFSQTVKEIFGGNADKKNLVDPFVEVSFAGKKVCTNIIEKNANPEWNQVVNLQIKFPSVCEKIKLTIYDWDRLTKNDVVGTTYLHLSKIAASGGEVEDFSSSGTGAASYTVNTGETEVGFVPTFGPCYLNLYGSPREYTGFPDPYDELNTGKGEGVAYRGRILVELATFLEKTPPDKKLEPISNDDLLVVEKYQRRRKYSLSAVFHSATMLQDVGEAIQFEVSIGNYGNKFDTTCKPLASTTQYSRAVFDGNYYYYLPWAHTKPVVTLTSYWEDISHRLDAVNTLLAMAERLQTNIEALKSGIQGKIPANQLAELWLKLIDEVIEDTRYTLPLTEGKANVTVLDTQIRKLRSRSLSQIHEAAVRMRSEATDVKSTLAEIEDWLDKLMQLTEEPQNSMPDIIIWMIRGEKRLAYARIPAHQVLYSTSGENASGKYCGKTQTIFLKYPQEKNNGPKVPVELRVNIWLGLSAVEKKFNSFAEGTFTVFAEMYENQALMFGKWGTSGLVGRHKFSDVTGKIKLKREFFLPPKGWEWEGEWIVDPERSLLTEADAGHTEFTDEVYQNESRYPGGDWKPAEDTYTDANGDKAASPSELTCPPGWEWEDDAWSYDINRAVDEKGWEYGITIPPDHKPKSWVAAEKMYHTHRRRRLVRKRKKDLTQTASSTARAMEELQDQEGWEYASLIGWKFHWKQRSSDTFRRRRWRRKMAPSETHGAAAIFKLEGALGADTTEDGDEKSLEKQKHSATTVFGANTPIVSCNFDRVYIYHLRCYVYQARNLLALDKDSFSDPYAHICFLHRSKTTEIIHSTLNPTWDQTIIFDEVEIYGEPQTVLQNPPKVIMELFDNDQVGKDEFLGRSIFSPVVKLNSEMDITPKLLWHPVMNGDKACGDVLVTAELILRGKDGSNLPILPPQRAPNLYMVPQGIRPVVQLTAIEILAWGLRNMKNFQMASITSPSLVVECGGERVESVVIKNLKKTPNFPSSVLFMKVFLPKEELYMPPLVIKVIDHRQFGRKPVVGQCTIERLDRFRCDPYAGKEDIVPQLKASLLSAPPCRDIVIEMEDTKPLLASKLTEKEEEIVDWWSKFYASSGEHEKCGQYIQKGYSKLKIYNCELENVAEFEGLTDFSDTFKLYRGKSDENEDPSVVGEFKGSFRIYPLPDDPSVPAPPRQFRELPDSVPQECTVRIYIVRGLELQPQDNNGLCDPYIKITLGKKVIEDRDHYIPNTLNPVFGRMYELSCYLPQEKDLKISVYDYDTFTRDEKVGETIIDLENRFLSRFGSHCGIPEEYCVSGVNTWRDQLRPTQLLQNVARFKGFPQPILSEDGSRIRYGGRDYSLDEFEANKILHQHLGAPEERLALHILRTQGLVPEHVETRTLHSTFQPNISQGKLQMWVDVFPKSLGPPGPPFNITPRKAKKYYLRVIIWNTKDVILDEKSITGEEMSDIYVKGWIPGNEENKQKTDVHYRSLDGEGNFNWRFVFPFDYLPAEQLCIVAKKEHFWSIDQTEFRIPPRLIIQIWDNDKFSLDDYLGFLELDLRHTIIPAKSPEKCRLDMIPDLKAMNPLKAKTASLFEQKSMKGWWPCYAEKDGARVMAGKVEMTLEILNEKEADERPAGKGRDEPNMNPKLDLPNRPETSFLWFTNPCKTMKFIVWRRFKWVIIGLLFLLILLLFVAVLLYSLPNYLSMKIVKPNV
Cytochrome P450 3A4, sequence (P08684 whole entry): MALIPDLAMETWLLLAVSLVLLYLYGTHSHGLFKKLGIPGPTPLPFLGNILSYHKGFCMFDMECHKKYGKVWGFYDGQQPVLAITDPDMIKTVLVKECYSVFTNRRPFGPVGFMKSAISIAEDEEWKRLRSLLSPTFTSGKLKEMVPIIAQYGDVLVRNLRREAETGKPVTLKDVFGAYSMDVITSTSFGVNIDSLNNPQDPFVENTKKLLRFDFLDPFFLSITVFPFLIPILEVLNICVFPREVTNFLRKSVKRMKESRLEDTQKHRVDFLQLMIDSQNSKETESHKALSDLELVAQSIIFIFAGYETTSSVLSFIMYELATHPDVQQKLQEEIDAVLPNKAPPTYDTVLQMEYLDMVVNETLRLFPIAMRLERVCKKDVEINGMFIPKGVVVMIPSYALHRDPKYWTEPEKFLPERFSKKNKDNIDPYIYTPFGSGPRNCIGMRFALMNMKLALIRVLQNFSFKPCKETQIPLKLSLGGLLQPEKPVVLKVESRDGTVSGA
Vascular endothelial growth factor receptor 2 (Homo sapiens), sequence (P35968 whole entry): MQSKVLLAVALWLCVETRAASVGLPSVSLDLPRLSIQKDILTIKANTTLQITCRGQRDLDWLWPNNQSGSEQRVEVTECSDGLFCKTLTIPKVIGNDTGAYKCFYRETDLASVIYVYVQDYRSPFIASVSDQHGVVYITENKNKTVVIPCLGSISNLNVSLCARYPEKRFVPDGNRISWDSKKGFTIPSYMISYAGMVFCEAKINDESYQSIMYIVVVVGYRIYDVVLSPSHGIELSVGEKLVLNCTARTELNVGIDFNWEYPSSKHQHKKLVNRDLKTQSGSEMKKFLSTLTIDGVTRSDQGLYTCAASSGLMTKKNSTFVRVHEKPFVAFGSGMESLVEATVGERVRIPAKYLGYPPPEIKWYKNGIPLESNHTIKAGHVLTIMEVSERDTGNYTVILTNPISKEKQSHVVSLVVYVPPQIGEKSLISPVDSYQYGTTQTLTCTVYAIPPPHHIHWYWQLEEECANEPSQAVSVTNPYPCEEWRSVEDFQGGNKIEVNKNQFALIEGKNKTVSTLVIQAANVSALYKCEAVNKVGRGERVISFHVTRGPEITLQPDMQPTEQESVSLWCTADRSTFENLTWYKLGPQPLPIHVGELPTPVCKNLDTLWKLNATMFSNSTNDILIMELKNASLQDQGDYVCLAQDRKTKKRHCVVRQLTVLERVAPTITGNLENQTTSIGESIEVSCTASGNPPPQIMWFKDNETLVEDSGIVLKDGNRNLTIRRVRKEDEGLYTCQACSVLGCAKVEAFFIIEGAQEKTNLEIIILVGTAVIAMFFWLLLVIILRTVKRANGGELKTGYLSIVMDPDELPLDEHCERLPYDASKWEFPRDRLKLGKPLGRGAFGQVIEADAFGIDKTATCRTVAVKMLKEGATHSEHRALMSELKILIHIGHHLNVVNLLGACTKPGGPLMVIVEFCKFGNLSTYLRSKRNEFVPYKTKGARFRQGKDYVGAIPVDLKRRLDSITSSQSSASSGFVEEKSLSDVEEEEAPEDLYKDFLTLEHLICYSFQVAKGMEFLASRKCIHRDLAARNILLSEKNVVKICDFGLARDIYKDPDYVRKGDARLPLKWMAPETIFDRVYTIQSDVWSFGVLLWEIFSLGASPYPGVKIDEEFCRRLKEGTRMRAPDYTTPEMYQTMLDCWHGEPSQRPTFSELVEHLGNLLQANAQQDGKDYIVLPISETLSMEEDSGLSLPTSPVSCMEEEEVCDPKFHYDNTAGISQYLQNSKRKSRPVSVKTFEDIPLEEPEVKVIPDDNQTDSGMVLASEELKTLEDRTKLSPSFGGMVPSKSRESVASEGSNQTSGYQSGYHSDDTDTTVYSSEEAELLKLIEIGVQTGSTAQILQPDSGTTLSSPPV

Compound: CCc1nc(-c2ncc(OC)cn2)n(-c2cccc(C(=O)NCCCCc3ccccc3)c2)n1
- Activity (PANC-1 [1]): Active
- pIC50 [2]: 4.83
- inhibition (Myoferlin [3]): Dose-dependent effect
- survival at 50 mg/kg/day (PANC-1 [4]): 87.5%
- Activity [5]: Non-Toxic
- Activity (PANC-1 [6]): inactive
- pIC50 (MCF-10A): 4.56
- inhibition (Myoferlin [7]): Active
- fold change (FC) (PANC-1 [8]): 5
- Activity [9]: Non-Toxic
- pIC50 (Cytochrome P450 2B6): < 4.30
- Activity [10]: Non-Toxic
- Activity (Myoferlin [11]): Active
- Activity (PANC-1 [12]): inactive
- Activity (PANC-1 [13]): inactive
- Activity (Myoferlin [14]): Dose-dependent effect
- pKd (Myoferlin [14]): 7.03
- Activity (PANC-1 [15]): inactive
- Activity [16]: inactive
- Activity (PANC-1 [17]): Non-Toxic
- Activity (PANC-1 [18]): inactive
- Activity (MIA PaCa-2): Dose-dependent effect
- Activity (PANC-1 [19]): inactive
- pIC50 (Cytochrome P450 3A4): < 4.30
- Activity [20]: Non-Toxic
- Activity (PANC-1 [21]): inactive
- pIC50 (PANC-1 [22]): 6.08
- survival at 25 mg/kg/day (PANC-1 [23]): 75%
- Activity (PANC-1 [24]): Dose-dependent effect
- fold change (FC) (PANC-1 [25]): 3
- Activity (PANC-1 [26]): inactive
- Activity (Capan-2): Dose-dependent effect
- Activity [27]: Non-Toxic
